{"source": "the supplement of paper PMC10307832", "assay_in_all_cases": "relative viability (nuclei count vs DMSO), 5 days (fraction); higher = more cells survive", "key": {"[1]": {"test_system": "LXF-289", "summary_of_the_method": "(§1)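 Medians of duplicate plates are given as relative viability. That measure is the nuclei count in treated wells divided by the count in vehicle wells. Counts were taken on 4× images of lung cancer cell lines in 1536-well plates, 5 days after pin-tool dosing the day after seeding with one drug alone or a fixed anchor-drug dose plus five library-drug doses (not always all listed) in √10 steps.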"}, "[2]": {"test_system": "NCI-H520", "summary_of_the_method": "as §1"}, "[3]": {"test_system": "NCI-H1651", "summary_of_the_method": "as §1"}, "[4]": {"test_system": "PC-14", "summary_of_the_method": "as §1"}, "[5]": {"test_system": "NCI-H1355", "summary_of_the_method": "as §1"}, "[6]": {"test_system": "NCI-H1915", "summary_of_the_method": "as §1"}, "[7]": {"test_system": "NCI-H1755", "summary_of_the_method": "as §1"}, "[8]": {"test_system": "NCI-H596", "summary_of_the_method": "as §1"}, "[9]": {"test_system": "NCI-H322M", "summary_of_the_method": "as §1"}, "[10]": {"test_system": "NCI-H3122", "summary_of_the_method": "as §1"}, "[11]": {"test_system": "NCI-H661", "summary_of_the_method": "as §1"}, "[12]": {"test_system": "RERF-LC-KJ", "summary_of_the_method": "as §1"}, "[13]": {"test_system": "NCI-H727", "summary_of_the_method": "as §1"}, "[14]": {"test_system": "NCI-H1563", "summary_of_the_method": "as §1"}, "[15]": {"test_system": "NCI-H1792", "summary_of_the_method": "as §1"}, "[16]": {"test_system": "LCLC-103H", "summary_of_the_method": "as §1"}, "[17]": {"test_system": "SK-MES-1", "summary_of_the_method": "as §1"}, "[18]": {"test_system": "NCI-H441", "summary_of_the_method": "as §1"}, "[19]": {"test_system": "NCI-H2347", "summary_of_the_method": "as §1"}, "[20]": {"test_system": "NCI-H460", "summary_of_the_method": "as §1"}}, "data": [{"smiles": "CCN(CC)CCCCNc1ncc2cc(-c3cc(OC)cc(OC)c3)c(NC(=O)NC(C)(C)C)nc2n1", "note": "+ C[C@@H](Oc1cc(-c2cnn(C3CCNCC3)c2)cnc1N)c1c(Cl)ccc(F)c1Cl [Crizotinib] (partner 1 µM)", "values": [{"measurement": "relative viability", "setting": "[1]; first compound 0.01 µM", "result": 0.836}, {"measurement": "relative viability", "setting": "[1]; first compound 0.03162 µM", "result": 0.817}, {"measurement": "relative viability", "setting": "[1]; first compound 0.1 µM", "result": 0.916}, {"measurement": "relative viability", "setting": "[1]; first compound 0.3162 µM", "result": 0.824}, {"measurement": "relative viability", "setting": "[1]; first compound 1 µM", "result": 0.696}, {"measurement": "relative viability", "setting": "[2]; first compound 0.01 µM", "result": 0.901}, {"measurement": "relative viability", "setting": "[2]; first compound 0.03162 µM", "result": 0.825}, {"measurement": "relative viability", "setting": "[2]; first compound 0.1 µM", "result": 0.86}, {"measurement": "relative viability", "setting": "[2]; first compound 0.3162 µM", "result": 0.61}, {"measurement": "relative viability", "setting": "[2]; first compound 1 µM", "result": 0.297}, {"measurement": "relative viability", "setting": "[3]; first compound 0.01 µM", "result": 0.925}, {"measurement": "relative viability", "setting": "[3]; first compound 0.03162 µM", "result": 0.851}, {"measurement": "relative viability", "setting": "[3]; first compound 0.1 µM", "result": 0.945}, {"measurement": "relative viability", "setting": "[3]; first compound 0.3162 µM", "result": 0.909}, {"measurement": "relative viability", "setting": "[3]; first compound 1 µM", "result": 0.828}, {"measurement": "relative viability", "setting": "[4]; first compound 0.01 µM", "result": 0.916}, {"measurement": "relative viability", "setting": "[4]; first compound 0.03162 µM", "result": 0.875}, {"measurement": "relative viability", "setting": "[4]; first compound 0.1 µM", "result": 1.02}, {"measurement": "relative viability", "setting": "[4]; first compound 0.3162 µM", "result": 1.06}, {"measurement": "relative viability", "setting": "[4]; first compound 1 µM", "result": 0.904}, {"measurement": "relative viability", "setting": "[5]; first compound 0.01 µM", "result": 1.17}, {"measurement": "relative viability", "setting": "[5]; first compound 0.03162 µM", "result": 1.16}, {"measurement": "relative viability", "setting": "[5]; first compound 0.1 µM", "result": 1.05}, {"measurement": "relative viability", "setting": "[5]; first compound 0.3162 µM", "result": 1.11}, {"measurement": "relative viability", "setting": "[5]; first compound 1 µM", "result": 1.06}, {"measurement": "relative viability", "setting": "[6]; first compound 0.01 µM", "result": 1.1}, {"measurement": "relative viability", "setting": "[6]; first compound 0.03162 µM", "result": 0.926}, {"measurement": "relative viability", "setting": "[6]; first compound 0.1 µM", "result": 0.943}, {"measurement": "relative viability", "setting": "[6]; first compound 0.3162 µM", "result": 1.03}, {"measurement": "relative viability", "setting": "[6]; first compound 1 µM", "result": 0.935}, {"measurement": "relative viability", "setting": "[7]; first compound 0.01 µM", "result": 0.928}, {"measurement": "relative viability", "setting": "[7]; first compound 0.03162 µM", "result": 0.94}, {"measurement": "relative viability", "setting": "[7]; first compound 0.1 µM", "result": 1.17}, {"measurement": "relative viability", "setting": "[7]; first compound 0.3162 µM", "result": 0.984}, {"measurement": "relative viability", "setting": "[7]; first compound 1 µM", "result": 0.892}, {"measurement": "relative viability", "setting": "[8]; first compound 0.01 µM", "result": 0.918}, {"measurement": "relative viability", "setting": "[8]; first compound 0.03162 µM", "result": 1.04}, {"measurement": "relative viability", "setting": "[8]; first compound 0.1 µM", "result": 1.02}, {"measurement": "relative viability", "setting": "[8]; first compound 0.3162 µM", "result": 0.956}, {"measurement": "relative viability", "setting": "[8]; first compound 1 µM", "result": 0.894}, {"measurement": "relative viability", "setting": "[9]; first compound 0.01 µM", "result": 0.977}, {"measurement": "relative viability", "setting": "[9]; first compound 0.03162 µM", "result": 0.912}, {"measurement": "relative viability", "setting": "[9]; first compound 0.1 µM", "result": 0.928}, {"measurement": "relative viability", "setting": "[9]; first compound 0.3162 µM", "result": 1.06}, {"measurement": "relative viability", "setting": "[9]; first compound 1 µM", "result": 0.935}, {"measurement": "relative viability", "setting": "[10]; first compound 0.01 µM", "result": 0.273}, {"measurement": "relative viability", "setting": "[10]; first compound 0.03162 µM", "result": 0.282}, {"measurement": "relative viability", "setting": "[10]; first compound 0.1 µM", "result": 0.317}, {"measurement": "relative viability", "setting": "[10]; first compound 0.3162 µM", "result": 0.291}, {"measurement": "relative viability", "setting": "[10]; first compound 1 µM", "result": 0.279}, {"measurement": "relative viability", "setting": "[11]; first compound 0.03162 µM", "result": 1.03}, {"measurement": "relative viability", "setting": "[11]; first compound 0.1 µM", "result": 0.972}, {"measurement": "relative viability", "setting": "[11]; first compound 0.3162 µM", "result": 1.04}, {"measurement": "relative viability", "setting": "[11]; first compound 1 µM", "result": 1.17}, {"measurement": "relative viability", "setting": "[12]; first compound 0.01 µM", "result": 0.84}, {"measurement": "relative viability", "setting": "[12]; first compound 0.03162 µM", "result": 0.818}, {"measurement": "relative viability", "setting": "[12]; first compound 0.1 µM", "result": 1.13}, {"measurement": "relative viability", "setting": "[12]; first compound 0.3162 µM", "result": 0.916}, {"measurement": "relative viability", "setting": "[12]; first compound 1 µM", "result": 0.816}, {"measurement": "relative viability", "setting": "[13]; first compound 0.01 µM", "result": 0.829}, {"measurement": "relative viability", "setting": "[13]; first compound 0.03162 µM", "result": 0.923}, {"measurement": "relative viability", "setting": "[13]; first compound 0.1 µM", "result": 1.03}, {"measurement": "relative viability", "setting": "[13]; first compound 0.3162 µM", "result": 1.06}, {"measurement": "relative viability", "setting": "[13]; first compound 1 µM", "result": 0.837}, {"measurement": "relative viability", "setting": "[14]; first compound 0.01 µM", "result": 0.86}, {"measurement": "relative viability", "setting": "[14]; first compound 0.03162 µM", "result": 0.836}, {"measurement": "relative viability", "setting": "[14]; first compound 0.1 µM", "result": 0.816}, {"measurement": "relative viability", "setting": "[14]; first compound 0.3162 µM", "result": 0.833}, {"measurement": "relative viability", "setting": "[14]; first compound 1 µM", "result": 0.623}, {"measurement": "relative viability", "setting": "[15]; first compound 0.01 µM", "result": 1.07}, {"measurement": "relative viability", "setting": "[15]; first compound 0.03162 µM", "result": 1.02}, {"measurement": "relative viability", "setting": "[15]; first compound 0.1 µM", "result": 1.33}, {"measurement": "relative viability", "setting": "[15]; first compound 0.3162 µM", "result": 1.41}, {"measurement": "relative viability", "setting": "[15]; first compound 1 µM", "result": 0.541}, {"measurement": "relative viability", "setting": "[16]; first compound 0.01 µM", "result": 1.11}, {"measurement": "relative viability", "setting": "[16]; first compound 0.03162 µM", "result": 1.04}, {"measurement": "relative viability", "setting": "[16]; first compound 0.1 µM", "result": 1.07}, {"measurement": "relative viability", "setting": "[16]; first compound 0.3162 µM", "result": 1.05}, {"measurement": "relative viability", "setting": "[16]; first compound 1 µM", "result": 1.05}, {"measurement": "relative viability", "setting": "[17]; first compound 0.01 µM", "result": 1.06}, {"measurement": "relative viability", "setting": "[17]; first compound 0.03162 µM", "result": 1.05}, {"measurement": "relative viability", "setting": "[17]; first compound 0.1 µM", "result": 1.14}, {"measurement": "relative viability", "setting": "[17]; first compound 0.3162 µM", "result": 1.03}, {"measurement": "relative viability", "setting": "[17]; first compound 1 µM", "result": 1.01}, {"measurement": "relative viability", "setting": "[18]; first compound 0.01 µM", "result": 0.676}, {"measurement": "relative viability", "setting": "[18]; first compound 0.03162 µM", "result": 0.897}, {"measurement": "relative viability", "setting": "[18]; first compound 0.1 µM", "result": 0.73}, {"measurement": "relative viability", "setting": "[18]; first compound 0.3162 µM", "result": 0.886}, {"measurement": "relative viability", "setting": "[18]; first compound 1 µM", "result": 0.762}, {"measurement": "relative viability", "setting": "[19]; first compound 0.01 µM", "result": 0.766}, {"measurement": "relative viability", "setting": "[19]; first compound 0.03162 µM", "result": 0.62}, {"measurement": "relative viability", "setting": "[19]; first compound 0.1 µM", "result": 0.677}, {"measurement": "relative viability", "setting": "[19]; first compound 0.3162 µM", "result": 0.63}, {"measurement": "relative viability", "setting": "[19]; first compound 1 µM", "result": 0.793}, {"measurement": "relative viability", "setting": "[20]; first compound 0.01 µM", "result": 1.15}, {"measurement": "relative viability", "setting": "[20]; first compound 0.03162 µM", "result": 0.934}, {"measurement": "relative viability", "setting": "[20]; first compound 0.1 µM", "result": 1.36}, {"measurement": "relative viability", "setting": "[20]; first compound 0.3162 µM", "result": 1.07}, {"measurement": "relative viability", "setting": "[20]; first compound 1 µM", "result": 0.797}]}]}
